Results reported in patent publication US20020155518A1, “Method of detecting compounds that control fungal diseases via effects on sporulation” (priority 2000, published 2002).

Assays:
[1] = tested on: Wheat Powdery Mildew (Blumeria [Erysiphe] graminis f.sp. tritici); conditions: in vivo; also: key: '+++' =high control; '++' =moderate control; '+' =low control; '0'=no control
[2] = tested on: Leptosphaeria (Septoria) nodorum; experiment: Protectant foliar spray test against wheat L. nodorum blotch; format: in vivo; also: key: '+++' =high control; '++' =moderate control; '+' =low control; '0'=no control
[3] = tested on: Apple Scab (Venturia inaequalis); experiment: Protectant foliar spray test against apple scab; format: in vivo; also: key: '+++' =high control; '++' =moderate control; '+' =low control; '0'=no control
[4] = tested on: Rice Blast (Magnaporthe grisea); format: in vivo; conditions: foliar spray before inoculation, vs untreated inoculated controls
[5] = wheat, foliar spray before inoculation, vs untreated inoculated controls
[6] = apple seedlings, foliar spray before inoculation, vs untreated inoculated controls

Compound | Level of Plant Disease Control, Wheat Powdery Mildew [1] | Level of Plant Disease Control, Wheat L. nodorum [2, 5] | Level of Plant Disease Control, Apple Scab [3, 6] | Level of Plant Disease Control, Rice Blast [4] | Level of Plant Disease Control, Wheat L. nodorum ([2]; in vivo) | Level of Plant Disease Control, Apple Scab ([3]; in vivo)
COc1cc(C)c(C(=O)c2c(Cl)cccc2Cl)c(OCc2ccccc2F)c1OC [V, (2,6-dichlorophenyl)[2-[(2-fluorophenyl)methoxy]-3,4-dimethoxy-6-methylphenyl]methanone] | +++ | 0 | 0 | ++ | – | –
COc1cc(C)c(C(=O)c2c(OC)ccc(Br)c2C)c(OCc2ccccc2C)c1OC [AA, (3-bromo-6-methoxy-2-methyiphenyl)[3,4-dimethoxy-6-methyl-2-[(2-methylphenyl)methoxy]phenyl]methanone] | +++ | 0 | 0 | 0 | – | –
COc1cc(C)c(C(=O)c2c(OC)ccc(Br)c2C)c(OCc2ccc(Cl)cc2)c1OC [EE, (3-bromo-6-methoxy-2-methylphenyl)[3,4-dimethoxy-6-methyl-2-[(4-chlorophenyl)methoxy]phenyl]methanone] | +++ | 0 | 0 | 0 | – | –
COc1cc(C)c(C(=O)c2c(OC)ccc(Br)c2Cl)c(OC)c1OC [J, (3-bromo-2-chloro-6-methoxyphenyl)(2,3,4-trimethoxy-6-methylphenyl)methanone] | +++ | 0 | + | 0 | – | –
CCCOc1c(OC)cc(C)c(C(=O)c2c(OC)ccc(Br)c2C)c1OCc1ccc(C(C)(C)C)cc1 [BB, (3-bromo-6-methoxy-2-methylphenyl)[4-methoxy-6-methyl-3-propoxy-2-[[4-(1,1-dimethylethyl)phenyl]methoxy]phenyl]methanone] | +++ | 0 | 0 | 0 | – | –
COc1cc(C)c(C(=O)c2c(C)cccc2C)c(OCc2cccc(C)c2)c1OC [Compound E, [3,4-dimethoxy-6-methyl-2-[(3-methylphenyl)methoxy]phenyl](2,6-dimethylphenyl)methanone] | +++ | – | – | – | – | –
COc1cc(C)c(C(=O)c2c(Cl)cccc2OC)c(OCc2cccc(C)c2)c1OC [I, (2-chloro-6-methoxyphenyl)[3,4-dimethoxy-6-methyl-2-[(3-methylphenyl)methoxy]phenyl]methanone] | +++ | 0 | ++ | + | – | –
CCCC(C)Oc1cc(C)c(C(=O)c2c(Cl)cccc2Cl)cc1OC (stereo not shown) [U, (2,6-dichlorophenyl)[5-methoxy-2-methyl-4-(1-methylbutoxy)phenyl]methanone] | ++ | +++ | 0 | ++ | – | –
COc1cc(C)c(C(=O)c2c(C)ccc3ccccc23)c(OC)c1OC [F, (2,3,4-trimethoxy-6-methylphenyl)(2-methyl-1-naphthalenyl)methanone] | +++ | 0 | 0 | ++ | – | –
CCCOc1c(OC)cc(C)c(C(=O)c2c(OC)ccc(Br)c2C)c1OCc1ccc(C(F)(F)F)cc1 [CC, (3-bromo-6-methoxy-2-methylphenyl)[4-methoxy-6-methyl-3-propoxy-2-[[4-(trifluoromethyl)phenyl]methoxy]phenyl]methanone] | +++ | 0 | 0 | 0 | – | –
CCCCOc1c(OC)cc(C)c(C(=O)c2c(Cl)cccc2Cl)c1OCCCC [B, (2,3-dibutoxy-4-methoxy-6-methylphenyl)(2,6-dichlorophenyl)methanone] | +++ | 0 | 0 | 0 | – | –
CCCCCOc1c(OC)cc(C)c(C(=O)c2c(OC)ccc(C)c2Cl)c1OC [P, (2-chloro-6-methoxy-3-methylphenyl)[2,4-dimethoxy-6-methyl-3-(pentyloxy)phenyl]methanone] | +++ | 0 | 0 | ++ | – | –
COc1cc(C)c(C(=O)c2c(Cl)cccc2Cl)c(OCc2ccc(F)cc2)c1OC [D, (2,6-dichlorophenyl)[2-[(4-fluorophenyl)methoxy]-3,4-dimethoxy-6-methylphenyl]methanone] | +++ | – | – | – | – | –
COc1cc(C)c(C(=O)c2c(C)cccc2C)c(OC)c1OC [L, (2,6-dimethylphenyl)(2,3,4-trimethoxy-6-methylphenyl)methanone] | +++ | 0 | 0 | 0 | – | –
COc1cc(C)c(C(=O)c2c(OC)ccc(C(F)(F)F)c2C)c(OC)c1OC [T, [6-methoxy-2-methyl-3-(trifluoromethyl)phenyl](2,3,4-trimethoxy-6-methylphenyl)methanone] | +++ | 0 | 0 | 0 | – | –
COc1cc(C)c(C(=O)c2c(OC)ccc(Cl)c2C)c(OC)c1OC [R, (3-chloro-6-methoxy-2-methylphenyl)(2,3,4-trimethoxy-6-methylphenyl)methanone] | +++ | 0 | 0 | ++ | – | –
COc1cc(C)c(C(=O)c2c(OC)ccc(Br)c2C)c(OCc2ccccc2F)c1OC [C, (3-bromo-6-methoxy-2-methylphenyl)[3,4-dimethoxy-6-methyl-2-[(2-fluorophenyl)methoxy]phenyl]methanone] | +++ | – | 0 | ++ | – | –
COc1cc(C)c(C(=O)c2c(C)cccc2C)c(OCc2ccccc2)c1OC [O, [3,4-dimethoxy-6-methyl-2-(phenylmethoxy)phenyl](2,6-dimethylphenyl)methanone] | +++ | 0 | 0 | ++ | – | –
COc1cc(C)c(C(=O)c2c(C)cccc2OC)c(OC)c1OC [G, (2-methoxy-6-methylphenyl)(2,3,4-trimethoxy-6-methylphenyl)methanone] | +++ | 0 | 0 | 0 | – | –
CCC(=O)Oc1c(OC)c(OC)cc(C)c1C(=O)c1c(Cl)cccc1Cl [W, (2,6-dichlorophenyl)[3,4-dimethoxy-6-methyl-2-(1-oxopropoxy)phenyl]methanone] | +++ | 0 | +++ | +++ | – | –
COc1cc(C)c(C(=O)c2c(OC)ccc(Br)c2C)c(OCc2cccc(C)c2)c1OC [Compound S, (3-bromo-6-methoxy-2-methylphenyl)[3,4-dimethoxy-6-methyl-2-[(3-methylphenyl)methoxy]phenyl]methanone] | +++ | – | – | – | – | –
CCCOc1c(OC)cc(C)c(C(=O)c2c(OC)ccc(Br)c2C)c1OCc1ccccc1 [Y, (3-bromo-6-methoxy-2-methylphenyl)[4-methoxy-6-methyl-2-(phenylmethoxy)-3-propoxyphenyl]methanone] | +++ | 0 | 0 | 0 | – | –
COc1cc(C)c(C(=O)c2c(C)cccc2C)c(OCc2c(F)cc(F)cc2F)c1OC [H, [3,4-dimethoxy-6-methyl-2-[(2,4,6-trifluorophenyl)methoxy]phenyl](2,6-dimethylphenyl)methanone] | +++ | 0 | 0 | 0 | – | –
COc1cc(C)c(C(=O)c2c(OC)ccc(Br)c2C)c(OC)c1OC [M, (3-bromo-6-methoxy-2-methylphenyl)(2,3,4-trimethoxy-6-methylphenyl)methanone] | +++ | – | – | 0 | 0 | +++
COc1cc(C)c(C(=O)c2c(C)ccc3ccccc23)c(OCc2ccccc2F)c1OC [X, [3,4-dimethoxy-6-methyl-2-[(2-fluorophenyl)methoxy]phenyl](2-methyl-1-naphthalenyl)methanone] | +++ | 0 | 0 | 0 | – | –
COc1cc(C)c(C(=O)c2c(C)ccc(Cl)c2C)c(OC)c1OC [Q, (3-chloro-2,6-dimethylphenyl)(2,3,4-trimethoxy-6-methylphenyl)methanone] | +++ | 0 | + | ++ | – | –
COc1cc(C(=O)c2c(Cl)cccc2Cl)c(C)cc1OC1CCCC1 [K, [4-(cyclopentyloxy)-5-methoxy-2-methylphenyl](2,6-dichlorophenyl)methanone] | 0 | +++ | – | 0 | – | –
